In patent publication US9463204B2, “Method for inducing differentiation enabling tumorigenesis of IPS cells to be suppressed” (Osaka University, priority 2011, dated 2016):
Entries after “also recorded” stand apart in the source; their conditions may differ.

System: mouse iPS cells
Experiment: Tumorigenesis suppression effects of statins versus phenamil (osteoblasts from iPS cell aggregates transplanted under mouse dorsal skin)
Type: in vivo
Protocol: Statins are also known as compounds that promote osteoblast differentiation induction, and have the effect of differentiating iPS cells into osteoblasts. Osteoblasts obtained by inducing differentiation in the presence of an osteoblast differentiation induction promoter (phenamil 1 μM) that was not a statin (HMG-CoA reductase inhibitor) were used as a control.
Osteoblasts obtained by inducing differentiation for 30 days in the presence of a statin or phenamil were transplanted under mouse dorsal skin (both sides).

## NC(=Nc1ccccc1)NC(=O)c1nc(Cl)c(N)nc1N [phenamil]
1 μM compound in osteoblast differentiation-inducing medium for 30 days, 28 days after transplantation under mouse dorsal skin
  tumor formation after transplantation (FIG. 7): a tumor was formed; also recorded: no tumor formation suppression effect was observed
1 μM compound, 30 days differentiation induction, grafts extracted after 28 days
  tissue other than bone tissue (tumorigenesis/teratoma) around the grafts (H&E, FIG. 8): formation of tissue other than bone tissue (teratoma) was observed
